Legend:
[1] = test system: MV-4-11 leukemia cell; experiment: BrdU cell proliferation assay (PerkinElme kit); assay type: cell-based; details: Homo sapiens, MV4-11, 48 h; read-out: In vitro cell-inhibiting activity IC50 MV-4-11
Method: Experimental method: cell proliferation assay was carried out by BrdU method (BrdU cell proliferation assay kit, PerkinElme Company).
Preparation of gradient dilution solutions of test compound: the stock solution containing 5 mM test compound was diluted by DMSO to prepare a 2 mM solution, then was subjected to 4-fold stepwise dilution to 9 concentration gradients.
MV-4-11 medium: IMDM+10% FBS
(1) Cells grown to exponential growth phase were digested with pancreatin, and centrifuged to collect the cells. The adherent cells were re-suspended in the corresponding culture medium, counted, and seeded to a 96-well plate; H358 cells and SW780 cells were seeded at 4000 cells/well/100 μL; PC3 cells were seeded at 1500 cells/well/100 μL; H441 cells were seeded at 6000 cells/well/100 μL. The plates were placed in a cell incubator at 37° C. After the cells adhered to the wall, the medium was replaced by serum-free medium. The suspended cells MV-4-11 and JeKo-1 were re-suspended with serum-free medium, counted, seeded to a 96-well plate by 10000 cells/well/100 μL and placed in a cell incubator overnight at 37° C. with 5% CO2. […]
(6) To each well, 200 μL of DELFIA Inducer was added and incubated for 15 min at room temperature. Value of fluorescence (Flu) was measured by ELISA instrument […]

[2] = target: CDK4/D3 (Homo sapiens, UniProt P11802); experiment: In vitro enzyme-inhibiting activity, Caliper Mobility Shift method; assay type: biochemical; details: read-out: CDK enzyme-inhibiting activity IC50 CDK4/D3
Method: Measurement of activity for inhibiting CDK4/6 kinase by Caliper Mobility Shift method.
1) Preparation of 1-Fold Buffer for CDK4 Kinase 800 μL stock solution containing 1000 mM HEPES (pH 7.5), and 40 μL stock solution containing 10% Triton X-100, were added to 39160 μL ultra pure water, and the resultant mixture was mixed homogeneously.
25 mL stock solution containing 4% Coating Reagent #3 (provided with the 12-sipper chip used in Caliper device), 50 mL stock solution containing 1000 mM HEPES (pH 7.5), 50 mL stock solution containing 0.5 M EDTA, and 0.25 mL stock solution containing 30% Brij-35, were added to 374.75 mL ultra pure water, and the resultant mixture was mixed homogeneously.
7 μL CDK4/D3 enzyme solution, and 9 μL stock solution containing 1M DTT were added to 1784 μL 1-fold CDK4 kinase buffer, and the resultant mixture was mixed homogeneously.
10 μL stock solution containing 100 mM ATP, 45 μL stock solution containing 1M MgCl2, and 45 μL FAM-tagged polypeptide 8, were added to 1700 μL 1-fold CDK4 kinase buffer, and the resultant mixture was mixed homogeneously.
DMSO solution containing 10 mM test compound was diluted with DMSO to a solution containing 50 μM test compound (which was used as a stock solution).
1) 5 μL 5-fold test compound solution and 10 μL 2.5-fold kinase solution were added to the corresponding wells in a 384-well plate, and incubated at room temperature for 10 min.
2) To the corresponding wells, 10 μL 2.5-fold polypeptide solution was added to start the enzymatic reaction, and incubation was performed at 28° C. for 5 h.
To the corresponding wells, 25 μL stop solution was added to stop the reaction.
The data was read by Caliper device, the inhibition rate was calculated by the following formula, and curve fitting was carried out by GraphPad5.0 software to get IC50 value. Inhibition rate=(maximal value−sample value)/(maximal value−minimal value)×100, wherein, maximal value: positive control without addition of test compound; minimal value: negative control without addition of enzyme.

[3] = test system: liver cancer PDX model; experiment: In vivo pharmacodynamics, liver cancer PDX model; set-up: species or system female NU/NU nude mouse; details: 200 mg/kg PO QD 21 days
Method: Tumor tissues were harvested from tumor-bearing mice of liver cancer PDX model, cut into pieces with diameter of […] and seeded subcutaneously to back of female NU/NU nude mouse. When the tumors' average volume reached 100-300 mm^3, the animals were grouped and administered with a drug. Compound 1 was orally administrated once a day at an amount of 200 mg/kg, for 21 days. The volume of the drug for administration is 0.1 mL/10 g according to animal's body weight.
Tumor volume was measured with vernier calipers twice a week by measuring the major diameter and the minor diameter. The tumor volume is calculated by the following formula: volume=0.5×(major diameter)×(minor diameter)^2. The relative tumor volume (RTV) and the proliferation ratio (T/C) were calculated according to the result of measurement. RTV=Vt/V0, wherein Vt is the average tumor volume on the t day after grouping, and V0 is the average tumor volume on the day of grouping. T/C (%)=RTV of treatment group/RTV of solvent control group×100%.
One-way ANOVA was used for analysing the group statistical analysis of tumor volumes. p<0.05 was regarded as having significant difference.

[4] = test system: MCF-7 human breast cancer cell; experiment: BrdU cell proliferation assay (Cell Signaling kit); assay type: cell-based; details: MCF7, 72 h, read-out: In vitro cell-inhibiting activity IC50 MCF-7
Method: Experimental method: cell proliferation assay was carried out by BrdU method (BrdU cell proliferation assay kit, Cell Signaling Technology Company).
Preparation of gradient dilution solutions of test compound: the stock solution containing 10 mM test compound was subjected to 4-fold stepwise dilution with DMSO to prepare solutions containing 2.5 mM, 625 μM, 156 μM, 39 μM, 9.8 μM, and 2.5 μM test compound, respectively. 2 μL DMSO-diluted compound was added to 198 μL culture medium containing 10% FBS to prepare […] test compound, wherein the maximum concentration of the test compound was 100 μM, the concentration of DMSO was 1%, and there were 7 concentration gradients.
MCF-7 medium: DMEM+10% FBS+0.01 mg/mL insulin
(1) Cells grown to 80% confluence (in exponential growth phase) were digested with pancreatin, and centrifuged to collect the cells. MDA-MB-435S and U87MG cells were re-suspended in FBS-free culture medium, counted, and seeded to a 96-well plate; MDA-MB-435S cells were seeded at 3000 cells/well/81 μL; U87MG cells were seeded at 4000 cells/well/81 MCF-7 cells were resuspended in culture medium containing 1% FBS, and counted and seeded to a 96-well plate, at 4000 cell/well/82 μL. The plates were placed in a cell incubator at 37° C. […]
(9) To each well, stop solution (100 μL) was added, and OD value at 450 nm was measured by ELISA instrument […]

CDK4/D3, sequence (P11802 whole entry): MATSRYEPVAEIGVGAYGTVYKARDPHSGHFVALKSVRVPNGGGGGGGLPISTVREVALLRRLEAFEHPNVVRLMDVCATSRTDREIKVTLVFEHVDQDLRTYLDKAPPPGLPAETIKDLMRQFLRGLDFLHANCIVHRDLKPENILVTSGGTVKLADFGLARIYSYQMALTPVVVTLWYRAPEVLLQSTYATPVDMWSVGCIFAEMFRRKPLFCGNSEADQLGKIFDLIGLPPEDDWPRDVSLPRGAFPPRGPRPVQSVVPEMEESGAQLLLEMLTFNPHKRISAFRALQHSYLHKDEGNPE
CDK4/D3, sequence (P30281 whole entry partner): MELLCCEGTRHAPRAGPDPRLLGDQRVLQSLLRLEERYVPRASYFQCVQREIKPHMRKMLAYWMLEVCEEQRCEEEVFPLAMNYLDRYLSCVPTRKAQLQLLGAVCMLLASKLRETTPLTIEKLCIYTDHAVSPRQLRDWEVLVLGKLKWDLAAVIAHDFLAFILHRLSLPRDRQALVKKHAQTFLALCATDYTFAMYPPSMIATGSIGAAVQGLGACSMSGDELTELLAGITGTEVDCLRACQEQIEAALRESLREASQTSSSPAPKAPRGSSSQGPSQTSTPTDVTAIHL

**Q.** For `CCN1CCN(Cc2cnc(Nc3cc(-c4cc(F)c5nc(C)n(C(C)C)c5c4)c(F)cn3)nc2)CC1` [Compound 1, 5-((4-ethylpiperazin-1-yl)methyl)-N-(5-fluoro-4-(4-fluoro-1-isopropyl-2-methyl-1H-benzo[d]imidazol-6-yl)pyridin-2-yl)pyrimidin-2-amine], which IC50 [1] is on record?
**A.** The IC50 was 0.139 µM.

**Q.** And the IC50 [2]?
**A.** The IC50 was 0.0027 µM.

**Q.** What about the “T/C (proliferation ratio)” value [3] of the same molecule?
**A.** The value was 31.74%.

**Q.** What about the “Tumor volume after administration” value ([3]; average ± standard error) of the same molecule?
**A.** Its value is 199.22 ± 33.76 mm^3.

**Q.** And the “Tumor volume before administration” value ([3]; average ± standard error)?
**A.** The value was 164.8 ± 10.35 mm^3.

**Q.** For `CCN1CCN(Cc2ccc(Nc3ncc(F)c(-c4cc(F)c5nc(C)n(C(C)C)c5c4)n3)nc2)CC1` [LY2835219, reference compound], which IC50 [4] is on record?
**A.** Its IC50 is 0.176 µM.

From US9949976B2, “Kinase inhibitor and use thereof” (Sihuan Pharmaceutical Holdings Group Ltd., priority 2013, dated 2018)
